The results in this text go back to patent publication US20240391882A1 (Mirati Therapeutics, Inc., priority 2023, published 2024).

Molecules are shown by their SMILES. Some results are limits rather than exact numbers.

Test [1] deals with pAKT in T47D (PI3Kα H1047R mutant) cells. Kind of test: Inhibition of pAKT (alphaLISA Surefire Ultra AKT 1/2/3 pS473) in T47D cells. The test is classed as cell-based. The conditions noted are these: Homo sapiens; T47D (PI3Kα H1047R mutant) cells, 24 hr compound incubation, alphaLISA pS473; read-out: T47D (H1047R) pAKT 24 hr (IC50). How it is done: The ability of a compound of Formula (I) to inhibit the formation of pAKT was measured using alphaLISA Surefire Ultra AKT 1/2/3 (pS473) Assay Kit (#ALSU-PAKT-B50K) was obtained from Perkin Elmer (Waltham, MA).
To prepare assay plates for pAKT alphaLISA assays, cells were trypsinized, resuspended in fresh media, and viable cells were counted utilizing trypan blue exclusion. Prior to seeding, cells were washed with PBS and resuspended in HBSS (Gibco, #14025092). T47D (12,000/w), SKBR3 (12,000/w), or MKN1 (24,000/w) cells were seeded at 12 μl per well in a solid white flat bottom 384 cell culture plate (Perkin Elmer #6007680).
Immediately after seeding, cells were dosed using an Echo Liquid Handler (Beckman Coulter) with compounds at a 10.4 μm starting concentration and serially diluted (1:4) for a total of 10 concentrations. 14 vehicle (DMSO) and 14 positive control (Alpelisib @3.125 μm) wells were included on each assay plate. Cells were incubated with the compounds (solubilized in DMSO) for approximately 24 hours at 37° C. After 24 hours of treatment, cells were lysed with 3 μl of the 5× lysis buffer (provided and incubated at room temperature for 15 min on a microtiter plate shaker). Once cells were sufficiently lysed, 7.5 μl of the acceptor bead mix (made using the manufacturers recommended dilutions) was added to each well and left on the microtiter plate shaker for 1 min prior to incubating plates at room temperature for 1 hour, in the absence of light. After 1 hour of incubation with the acceptor bead mix, 7.5 μl of the donor bead mix (made using the manufacturers recommended dilutions) was added to each well and left on the microtiter plate shaker for 1 min prior to incubating plates at room temperature overnight in the absence of light. Plates were then imaged the following day using a CLARIOstar microplate reader (BMG Labtech, Germany).
Percent of control values were calculated by subtracting the average signal from the positive control (alpelisib) treated wells from all treated wells (including DMSO control wells) and then divided by the average signal from the vehicle DMSO treated control wells. Percent of vehicle control values were plotted as log(inhibitor) vs. response—Variable slope (four parameters) for curve fitting and IC50 values were determined using XLfit.

Test [2] concerns T47D (PI3Kα H1047R mutant) cells. Kind of test: Cell viability (CellTiter-Glo 2.0) in T47D cells. The test is classed as cell-based. The conditions noted are these: Homo sapiens, T47D, 72 h, approximately 72 hours. Here is the method: This Example illustrates that representative compounds of the invention decrease the viability of cells.
The ability of a compound of Formula (I) to decrease the viability of cells was measured using CellTiter-Glo 2.0 (CTG) Luminescent Cell Viability Assay (#G9241) obtained from Promega (Madison, WI).
To prepare assay plates for viability assays, cells were trypsinized, resuspended in fresh media, and viable cells were counted utilizing trypan blue exclusion. T47D, SKBR3, or MKN1 cells were seeded at 1000 cells in 30 μl per well in a solid white flat bottom 384 cell culture plate (Perkin Elmer #6007680) and incubated at 37° C. overnight.
Assay day 1, cells were dosed using an Echo Liquid Handler (Beckman Coulter) with compounds at a 10 μm starting concentration and serially diluted (1:4) for a total of 10 concentrations. Cells were incubated for approximately 72 hours with the compounds (solubilized in DMSO) at 37° C. After 72 hours of treatment, cell plates were equilibrated to room temperature before adding 15 μl of CTG to each well, plates were then covered in aluminum foil to protect from light, incubated at room temperature for 30 minutes on a microtiter plate shaker, and luminescence readings were collected using a CLARIOstar microplate reader (BMG Labtech, Germany). Percent of vehicle control values were plotted as log(inhibitor) vs. response—Variable slope (four parameters) for curve fitting and IC50 values were determined using XLfit.
For orientation: ATP-based viability assays read luminescence as a measure of living cells.

As usually defined, the IC50 is the concentration at which inhibition is half-maximal. On to `Cc1cc([C@@H](C)Nc2ccc(Cl)nc2C(=O)O)c2nc(N3C[C@@H](F)[C@@H](F)C3)c(C#N)nc2c1` [Example 122, 6-chloro-3-(((R)-1-(2-cyano-3-((3S,4R)-3,4-difluoropyrrolidin-1-yl)-7-methylquinoxalin-5-yl)ethyl)amino)picolinic acid], for which the IC50 in test [1] was determined as 1.3 nM; in test [2] it was 33.8 nM.
As for `Cc1cc([C@@H](C)Nc2ccc(Cl)nc2C(=O)O)c2nc(N3C4CCC3COC4)c(C#N)nc2c1` [Example 120, 3-(((1R)-1-(3-(3-oxa-8-azabicyclo[3.2.1]octan-8-yl)-2-cyano-7-methylquinoxalin-5-yl)ethyl)amino)-6-chloropicolinic acid], the half-maximal inhibitory concentration (IC50) in test [1] came to 2.4 nM; in test [2] it was 56.4 nM.
The corresponding values for `Cc1cc([C@@H](C)Nc2ccc(Cl)nc2C(=O)O)c2nc(N3CC(F)(F)C4(CC4)C3)c(C#N)nc2c1` [Example 116, (R)-6-chloro-3-((1-(2-cyano-3-(7,7-difluoro-5-azaspiro[2.4]heptan-5-yl)-7-methylquinoxalin-5-yl)ethyl)amino)picolinic acid] are 15 nM and 202 nM.
As for `Cc1cc([C@@H](C)Nc2ccc(Cl)nc2C(=O)O)c2nc(N3CCO[C@@H](C)C3)c(C#N)nc2c1` [Example 260, 6-chloro-3-(((R)-1-(2-cyano-7-methyl-3-((S)-2-methylmorpholino)quinoxalin-5-yl)ethyl)amino)picolinic acid], the IC50 in test [1] stood at 1.9 nM; in test [2], 73.8 nM.
The corresponding values for `Cc1cc([C@@H](C)Nc2ccc(Cl)nc2C(=O)O)c2nc(N3CCc4ccncc4C3)c(C#N)nc2c1` [Example 162, (R)-6-chloro-3-((1-(2-cyano-3-(3,4-dihydro-2,7-naphthyridin-2(1H)-yl)-7-methylquinoxalin-5-yl)ethyl)amino)picolinic acid] are 1.6 nM and 35 nM.
The like results for `COC[C@@]1(F)CCN(c2nc3c([C@@H](C)Nc4ccc(Cl)nc4C(=O)O)cc(C)cc3nc2C#N)C1` (single isomer, unassigned) [Example 164] were, in that order, 2.1 nM and 55 nM.
The like results for `COC(=O)c1nc(Cl)ccc1N[C@H](C)c1cc(C)cc2nc(C#N)c(N3CC[C@](C)(F)C3)nc12` (single isomer, unassigned) [Example 181] were, in that order, 1.7 nM and 44 nM.
For `Cc1cc([C@@H](C)Nc2ccc(Cl)nc2C(=O)O)c2nc(NCCC(F)(F)F)c(C#N)nc2c1` [Example 124, (R)-6-chloro-3-((1-(2-cyano-7-methyl-3-((3,3,3-trifluoropropyl)amino)quinoxalin-5-yl)ethyl)amino)picolinic acid], the IC50 in test [1] was 1.9 nM; in test [2], 126 nM.
The corresponding values for `Cc1cc([C@@H](C)Nc2ccccc2C(=O)O)c2nc(N3CC(F)(F)C3)c(C#N)nc2c1` [Example 127, (R)-2-((1-(2-cyano-3-(3,3-difluoroazetidin-1-yl)-7-methylquinoxalin-5-yl)ethyl)amino)benzoic acid] are 8.4 nM and 296 nM.
The corresponding values for `Cc1cc([C@@H](C)Nc2ccc(Cl)nc2C(=O)O)c2nc(N3CC[C@@H](F)C3)c(C#N)nc2c1` [Example 177, 6-chloro-3-(((R)-1-(2-cyano-3-((R)-3-fluoropyrrolidin-1-yl)-7-methylquinoxalin-5-yl)ethyl)amino)picolinic acid] are 0.5 nM and 19.4 nM.
The corresponding values for `Cc1cc([C@@H](C)Nc2ccc(Cl)nc2C(=O)O)c2nc(N(C)CCC(=O)N(C)C)c(C#N)nc2c1` [Example 114, (R)-6-chloro-3-((1-(2-cyano-3-((3-(dimethylamino)-3-oxopropyl)(methyl)amino)-7-methylquinoxalin-5-yl)ethyl)amino)picolinic acid] are 11 nM and 190 nM.
Turning to `CC(=O)N1CCN(c2nc3c([C@@H](C)Nc4ccc(Cl)nc4C(=O)O)cc(C)cc3nc2C#N)CC1` [Example 160, (R)-3-((1-(3-(4-acetylpiperazin-1-yl)-2-cyano-7-methylquinoxalin-5-yl)ethyl)amino)-6-chloropicolinic acid], the values for the IC50 in test [1] and in test [2] were 4.6 nM and 85.8 nM, respectively.
The corresponding values for `Cc1cc([C@@H](C)Nc2ccc(Cl)nc2C(=O)O)c2nc(N3C[C@@H]4[C@H](CO)[C@@H]4C3)c(C#N)nc2c1` [Example 163, 6-chloro-3-(((R)-1-(2-cyano-3-((1R,5S,6S)-6-(hydroxymethyl)-3-azabicyclo[3.1.0]hexan-3-yl)-7-methylquinoxalin-5-yl)ethyl)amino)picolinic acid] are 6.8 nM and 191 nM.
On to `COC(=O)c1nc(Cl)ccc1N[C@H](C)c1cc(C)cc2nc(C#N)c(N3CC[C@@](C)(F)C3)nc12` (single isomer, unassigned) [Example 180], for which the IC50 in test [1] turned out to be 1.6 nM; in test [2], 57.8 nM.
The like results for `Cc1cc([C@@H](C)Nc2ccc(Cl)nc2C(=O)O)c2nc(N3CC[C@H](CO)C3)c(C#N)nc2c1` [Example 158, 6-chloro-3-(((R)-1-(2-cyano-3-((S)-3-(hydroxymethyl)pyrrolidin-1-yl)-7-methylquinoxalin-5-yl)ethyl)amino)picolinic acid] were, in that order, 3.6 nM and 88.1 nM.
The like results for `COC[C@]1(F)CCN(c2nc3c([C@@H](C)Nc4ccc(Cl)nc4C(=O)O)cc(C)cc3nc2C#N)C1` (single isomer, unassigned) [Example 165] were, in that order, 5.6 nM and 97 nM.
The corresponding values for `Cc1cc([C@@H](C)Nc2ccc(Cl)nc2C(=O)O)c2nc(N3CC[C@@H](CO)C3)c(C#N)nc2c1` [Example 159, 6-chloro-3-(((R)-1-(2-cyano-3-((R)-3-(hydroxymethyl)pyrrolidin-1-yl)-7-methylquinoxalin-5-yl)ethyl)amino)picolinic acid] are 2.6 nM and 70.3 nM.
Regarding `Cc1cc([C@@H](C)Nc2ccc(Cl)nc2C(=O)O)c2nc(N3CC(C)(C)C(F)(F)C3)c(C#N)nc2c1` [Example 123, (R)-6-chloro-3-((1-(2-cyano-3-(3,3-difluoro-4,4-dimethylpyrrolidin-1-yl)-7-methylquinoxalin-5-yl)ethyl)amino)picolinic acid], the values for the IC50 in test [1] and in test [2] were 66.8 nM and 273 nM, respectively.
The corresponding values for `Cc1cc([C@@H](C)Nc2nccnc2C(=O)O)c2nc(N3CCC(F)(F)CC3)c(C#N)nc2c1` [Example 113, (R)-3-((1-(2-cyano-3-(4,4-difluoropiperidin-1-yl)-7-methylquinoxalin-5-yl)ethyl)amino)pyrazine-2-carboxylic acid] are above 10400 nM and 1170 nM.
With `Cc1cc([C@@H](C)Nc2ccc(Cl)nc2C(=O)O)c2nc(NCCC(=O)N(C)C)c(C#N)nc2c1` [Example 125, (R)-6-chloro-3-((1-(2-cyano-3-((3-(dimethylamino)-3-oxopropyl)amino)-7-methylquinoxalin-5-yl)ethyl)amino)picolinic acid], the IC50 in test [1] is 2.7 nM; in test [2] it was 163 nM.
Regarding `Cc1cc([C@@H](C)Nc2ccc(Cl)nc2C(=O)O)c2nc(N3CC(F)(F)C3)c(C#N)nc2c1` [Example 128, (R)-6-chloro-3-((1-(2-cyano-3-(3,3-difluoroazetidin-1-yl)-7-methylquinoxalin-5-yl)ethyl)amino)picolinic acid], the IC50 in test [1] is 1.4 nM; in test [2], 121 nM.
